For data set [1], the system named is delayed hypersensitibity. In words: TEST 3 effects on delayed hypersensitivity (sheep red blood cell paw edema). It is filed as in vivo, mice, ddY strain. The conditions noted are these: four consecutive days. The protocol:
Into the palms of the right rear limbs of mice (ddY strain, weighing 25-30 g) was injected 40 μl of sheep red blood cells the concentration of which was adjusted to 1×10^7 /40 μl. The test drug was administered intraperitoneally or orally for four consecutive days inclusive of the day of sheep red blood cell administration. Three days after the day of sheep red blood cell administration, 40 μl of sheep red blood cells which were adjusted to have a concentration of 5×10^8 /40 μl were administered into the palms of the left rear limbs. After 24 hours, the thickness of the palms of the right and left rear limbs was measured. The edema was expressed as the difference in thickness between the palms of the left and right rear limbs. The results are shown in FIG. 3, in which the edema in the medicated group is expressed as percent control which means the percentage of the edema found in the group in which physiological saline is applied (control group).

The test system of data set [2] is plaque forming cells in the spleen of mice. The experiment in a line: TEST 2 effect on plaque forming cells in the spleen of mice inoculated with sheep red blood cells, C3H/He (Run 2). It is filed as in vivo, mouse. The note with it: 7 weeks, I.P. sheep cells, four consecutive days. The protocol: (§1) Mice were inoculated by intravascular or intraperitoneal administration of 1×10^8 sheep cells per animal. Each group consisted of five mice. The test drug was administered orally or intraperitoneally for four consecutive days from the day when the sheep cells were administered.

For data set [3] the test system is unchanged. In words: TEST 2 effect on plaque forming cells in the spleen of mice inoculated with sheep red blood cells, Balb/c (Run 1). The format is in vivo, mouse. The note with it: 4 weeks, intravascular sheep cells, four consecutive days. The protocol: as §1
Data set [4] deals with six strains as stipulated in the Labor Safety and Hygiene Law in Japan. The experiment in a line: mutagenicity test using six strains. It is filed as cell-based. The conditions noted are these: ~100 μg/plate.
For data set [5], the system named is ddY mice. In words: TEST 1 acute toxicity in mice. The note with it: during 7 days after administration. It is filed as in vivo. From the text:
The test drug was suspended in aqueous 50% solution of Tween 80 and administered to ddY mice weighing 20-25 g orally or intraperitoneally in doses indicated in Table 1 below.

In data set [6] the test system is rat adjuvant arthritis. The experiment in a line: TEST 4 effect on rat adjuvant arthritis. It is filed as in vivo, Sprague-Dawley rats. The conditions noted are these: 27 consecutive days. Here is the method: The test animals were Sprague-Dawley rats at the age of 8 weeks and each group consisted of ten animals. An intracutaneous injection of 0.05 ml of a suspension of 0.5 mg of Mycobacterium butyricum in liquid paraffin was applied to each animal at the paw of the right rear limb. For 27 consecutive days from the day before the adjuvant injection, Compound (2) was orally administered at doses of 3, 10 and 30 mg/kg with measurement of the volume of the paw.

The values below come from US4439448A, “Glutamine derivatives” (Mitsubishi Chemical Industries Ltd., priority 1980, dated 1984).

Regarding `Cn1cnc([N+](=O)[O-])c1Sc1ncnc2nc[nH]c12` [Azathioprine, reference compound], the “% Control (edema, percentage of that in physiological saline control group)” value in data set [1] (30 mg/kg I.P.) was determined as 61.0%; in data set [1] (100 mg/kg P.O.), 58.2%. Besides, the “PFC × 2,500/spleen (Mean ± standard error)” value in data set [2] (50 mg/kg P.O.) is listed as 46.7 ± 1.2 PFC × 2,500/spleen; in data set [3] (50 mg/kg P.O.) it was 22.8 ± 2.40 PFC × 2,500/spleen.

As for “N-(4-Carboxymethylphenyl)-L-glutamine [Compound (2)]”, the “% Control (edema, percentage of that in physiological saline control group)” value in data set [1] (3 mg/kg I.P.) worked out at 69.7%; in data set [1] (10 mg/kg I.P.), 65.9%; in data set [1] (30 mg/kg I.P.), 62.3%; in data set [1] (30 mg/kg P.O.), 78.8%; in data set [1] (100 mg/kg P.O.) it was 66.2%; in data set [1] (300 mg/kg P.O.), 65.0%. Moreover, the mutagenicity entry in data set [4] was “negative in mutagenicity”. The “No. of dead mice/No. of test animals” value in data set [5] (1,000 mg/kg IP) and in data set [5] (5,000 mg/kg PO) was 0/5 each time. Moreover, the “PFC × 2,500/spleen (Mean ± standard error)” value is 113.0 ± 20.4 PFC × 2,500/spleen in data set [2] (30 mg/kg P.O.); 160.0 ± 20.6 PFC × 2,500/spleen in data set [2] (100 mg/kg P.O.); 152.4 ± 11.4 PFC × 2,500/spleen in data set [2] (300 mg/kg P.O.); 99.0 ± 4.60 PFC × 2,500/spleen in data set [3] (30 mg/kg P.O.); 91.8 ± 18.6 PFC × 2,500/spleen in data set [3] (100 mg/kg P.O.); 73.4 ± 12.7 PFC × 2,500/spleen in data set [3] (300 mg/kg P.O.). Also, in data set [6] (3, 10 and 30 mg/kg orally), the “action on secondary inflammations” value was “exerted an inhibitory action on these secondary inflammations in every dose”. For the same compound, the “dose dependency of action on secondary inflammations” value in data set [6] (3, 10 and 30 mg/kg orally) is reported as “any definite dose dependency was not appreciated”. In data set [6] (orally), the “decrease in body weight accompanying secondary inflammations” value is reported as “an improving tendency”. In addition, the “inhibitory action on primary inflammations caused by direct reaction of the adjuvant” value in data set [6] (orally) is given as “very slight”.

On to “N-(4-Ethoxycarbonylmethylphenyl)-L-glutamine [Compound (1)]”, for which the “% Control (edema, percentage of that in physiological saline control group)” value is listed as 85.2% in data set [1] (3 mg/kg I.P.); 78.2% in data set [1] (10 mg/kg I.P.); 91.7% in data set [1] (30 mg/kg I.P.); 85.7% in data set [1] (30 mg/kg P.O.); 76.4% in data set [1] (100 mg/kg P.O.); 74.5% in data set [1] (300 mg/kg P.O.). For the same compound, the “No. of dead mice/No. of test animals” value in data set [5] (1,000 mg/kg IP) and in data set [5] (5,000 mg/kg PO) was 0/5 throughout.
